Assay results published in patent US20050256103A1, “Indole derivative having piperidine ring” (Eisai Co., Ltd., priority 2004, published 2005).
Like-named read-outs stand apart in the source and are kept apart here.

Target: T1, 5-HT1A receptor (Sus scrofa, UniProt A0A4X1UTF5)
T1 construct: Swine hippocampus was homogenized in a 50 mM Tris-Hcl buffer; from tissue; host or cells: swine hippocampus, membrane fraction
T1 sequence (A0A4X1UTF5 1-422): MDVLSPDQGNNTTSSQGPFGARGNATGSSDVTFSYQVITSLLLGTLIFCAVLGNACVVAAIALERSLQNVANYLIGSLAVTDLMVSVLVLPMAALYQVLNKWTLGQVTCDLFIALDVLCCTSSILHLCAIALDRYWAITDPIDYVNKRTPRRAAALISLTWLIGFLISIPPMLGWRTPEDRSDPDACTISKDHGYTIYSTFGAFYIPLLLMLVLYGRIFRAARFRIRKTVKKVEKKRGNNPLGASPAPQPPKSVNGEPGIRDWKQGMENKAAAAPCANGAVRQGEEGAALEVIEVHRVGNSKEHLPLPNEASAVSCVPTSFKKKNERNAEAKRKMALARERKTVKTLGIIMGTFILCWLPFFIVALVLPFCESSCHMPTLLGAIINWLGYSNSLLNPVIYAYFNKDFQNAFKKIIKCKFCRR
Experiment: Affinity for serotonin 1A receptor: inhibition of [3H]MPPF binding in swine hippocampal membrane fraction
Settings: for IC50: [3H]MPPF 0.5 nM, swine hippocampal membrane, 37°C 30 min
In short: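 Swine hippocampal membranes incubated 30 min at 37 °C with 0.5 nM [3H]MPPF and test compound in 50 mM Tris-HCl pH 7.4, 1% DMSO, with 10 mM MgCl2 (G-protein-coupled, high-affinity state) or 1 mM Gpp(NH)p (uncoupled, low-affinity state). Bound radioactivity measured by filtration and scintillation counting; nonspecific binding defined with 10 μM WAY-100,635. IC50 in each state; low/high IC50 ratio taken as an estimate of intrinsic activity.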

Work on `CNC(=O)c1ccc2ccn(C3CCN(CCc4c(OC)ccc5c4OC(C)(C)CC5=O)CC3)c2c1` [Compound 20, 1-{1-[2-(7-methoxy-2,2-dimethyl-4-oxochroman-8-yl)ethyl]piperidin-4-yl}-N-methyl-1H-indole-6-carboxamide] yielded an IC50 (receptor in high affinity (G-protein binding, MgCl2 10 mM) state, read-out: High affinity IC50) of 0.2 nM, an IC50 (receptor in low affinity (G-protein non-binding, Gpp(NH)p 1 mM) state, read-out: Low affinity IC50) of 0.16 nM and a L/H ratio (low affinity IC50 divided by high affinity IC50, 1 or smaller = no intrinsic activity, 2 or greater = intrinsic activity) of 0.8.
